One series concerns the target T1, HerA–NurA (Saccharolobus solfataricus, UniProt Q97WG8).
T1 construct: purified recombinant HerA hexamer with NurA dimer; with DNA double-strand break repair nuclease NurA
Put plainly: native mass spectrometry. It is filed as binding. The note with it: nuclease-active complex with 25 bp dsDNA.

Another series addresses T2, HerA (Saccharolobus solfataricus, UniProt Q97WG8).
T2 construct: recombinant, heat-treated, heparin and Q columns; homo-hexamer and homo-heptamer (heptamer dominant when apo)
T2 sequence (Q97WG8 1-500): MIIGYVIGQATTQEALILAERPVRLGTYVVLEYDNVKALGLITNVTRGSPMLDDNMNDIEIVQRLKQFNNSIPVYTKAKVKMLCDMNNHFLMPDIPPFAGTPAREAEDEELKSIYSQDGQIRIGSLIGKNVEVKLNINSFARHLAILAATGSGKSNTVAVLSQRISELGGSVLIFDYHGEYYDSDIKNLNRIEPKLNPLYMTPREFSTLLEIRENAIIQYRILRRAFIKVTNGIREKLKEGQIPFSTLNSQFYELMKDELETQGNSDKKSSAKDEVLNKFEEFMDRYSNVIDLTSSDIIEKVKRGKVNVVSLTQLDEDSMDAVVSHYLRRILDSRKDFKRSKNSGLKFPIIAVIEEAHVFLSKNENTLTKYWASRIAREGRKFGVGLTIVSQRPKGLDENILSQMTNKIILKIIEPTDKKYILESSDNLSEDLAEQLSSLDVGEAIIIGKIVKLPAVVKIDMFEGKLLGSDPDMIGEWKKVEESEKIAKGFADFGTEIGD
Put plainly: native mass spectrometry titration. It is filed as binding. The note with it: 2 mM MgCl2, room temperature 1 h, 30 μM monomer, then 200 mM ammonium acetate, no dsDNA.

In series [1] the target is T3, HerA helicase, wild type (Sulfolobus solfataricus) (S. solfataricus, UniProt Q97WG8 1-500).
T3 construct: HerA helicase of the thermophilic archaeon Sulfolobus solfataricus; In solution a mix of hexamer and heptamer; the hexamer is the form found with NurA; No tag is named in the purification; Expression and constructs may be described in the supplementary materials and methods; also called apo-HerA; wild-type HerA; source: cells lysed by sonication, lysate heated at 70°C, purified (Heparin HP, …)
T3 sequence: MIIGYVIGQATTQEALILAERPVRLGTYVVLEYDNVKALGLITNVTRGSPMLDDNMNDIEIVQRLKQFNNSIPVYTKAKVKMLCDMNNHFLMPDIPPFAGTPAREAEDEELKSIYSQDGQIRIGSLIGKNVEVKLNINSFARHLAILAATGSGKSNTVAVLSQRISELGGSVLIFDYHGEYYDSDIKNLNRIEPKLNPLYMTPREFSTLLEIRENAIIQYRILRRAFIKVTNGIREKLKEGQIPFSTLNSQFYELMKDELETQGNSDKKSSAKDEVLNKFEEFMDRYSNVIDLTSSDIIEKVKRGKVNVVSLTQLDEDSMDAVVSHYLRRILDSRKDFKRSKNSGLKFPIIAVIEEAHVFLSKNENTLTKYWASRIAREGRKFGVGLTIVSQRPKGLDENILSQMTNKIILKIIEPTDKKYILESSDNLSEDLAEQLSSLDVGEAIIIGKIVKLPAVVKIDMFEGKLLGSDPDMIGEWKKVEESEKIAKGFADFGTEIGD
Put plainly: native MS; HerA incubated with NurA (2:3 molar ratio of monomers), no dsDNA, no nucleotide, 200 mM ammonium acetate. The note with it: both partners purified.

Series [2] deals with the molecule itself. Described as above.

These results are taken from article PMC5715905, “Mechanistic insight into the assembly of the HerA–NurA helicase–nuclease DNA end resection complex” (Nucleic Acids Research, 2017).

As for `Nc1ncnc2c1ncn2[C@@H]1O[C@H](COP(=O)(O)OP(=O)(O)O)[C@@H](O)[C@H]1O` [ADP], on HerA–NurA (ATP-γ-S pre-bound), the native mass spectrometry entry is “determined the number of ADP simultaneously bound to HerA–NurA–dsDNA”. Besides, the “native mass spectrometry titration” value at HerA (1 mM ADP spectrum) is reported as “increase in hexameric HerA population was found when titrating HerA with increasing concentrations of ADP”.

Regarding `Nc1ncnc2c1ncn2[C@@H]1O[C@H](COP(=O)(O)OP(=O)(O)OP(O)(O)=S)[C@@H](O)[C@H]1O` [ATP-γ-S], the native mass spectrometry result on HerA–NurA (mixed with ADP) is given as “nuclease-active HerA–NurA–dsDNA complex was incubated with ATP-γ-S”. Besides, the “native mass spectrometry titration” value on HerA is “the HerA hexamer binds all six ATP-γ-S simultaneously”.

B1: NurA nuclease, wild type (Sulfolobus solfataricus) (enzyme, S. solfataricus)
chain: MIRKIYDKLVESHNEIKNQIYNIANYLKQEIQDKVNEYWNEYVINHEQSETCKFVAIDGGSFGRPMRIGIVYAVGAESVIGDNKGVKTLSEDGQIGIFKPGNDAQERISLLMEALELSLALRDGSKGDYILMDGSLSKKIGNKVDIQQFSDEELKLIRNVDLNGIISIKDERKMRDLLMLLNQFLVSKIIEEYDGNVLWISKVSRGRDLFGTDYPDITVLELFTEKRGFSKLIIKNIDIEKISEIPEIEVLRKMEYTTFYTRLDNGKRVIRVDIVGRVDEKIVKEIMDRLSGVSIKGYPFPLLKAHMDVRFSAMDREKIIKLVGSKLHKDIEWWPSQFY
notes: NurA nuclease of the thermophilic archaeon Sulfolobus solfataricus; Homodimer; No tag is named in the purification; also called NurA^WT; NurA dimer; source: cells lysed by sonication, lysate heated at 70°C, purified (Heparin HP, HiTrap Q HP)
Regarding B1, the binding result in series [1] is “binds”. Moreover, in series [2], the “stoichiometry N” value was 2.
